Source: ChEMBL document CHEMBL1201862, “PubChem BioAssay data set” (2004)
Values joined by “and” are separate entries in the source; they are usually repeats but may differ in a detail not shown here. Equal values may be shown once.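 Step 1: Grow cells in 96-well plates. Step 2: Expose to compound for 48 hours at 5 concentrations. Step 3: Interpolate endpoints linearly; if unreached, use highest concentration. Here, GI50 denotes the concentration required for 50% inhibition of growth.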 Active and inactive are the calls of the source. Cut-off read from the data, not from the text of the source: active = GI50 up to about 1.1 µM and inactive = higher.

How the values were obtained:
Assay in all cases: inhibition of tumour cell growth, NCI panel, 48 h
[1] = system: DLD-1
[2] = system: DMS-273
[3] = system: HOP-18
[4] = system: LXFL 529
[5] = system: M19-MEL
[6] = system: SNB-78
[7] = system: XF498
[8] = system: KM-20L2
[9] = system: RXF 631

Structure (SMILES)	GI50 [1]	GI50 [2]	GI50 [3]	GI50 [4]	GI50 [5]	GI50 [6]	GI50 [7]	GI50 [8]	GI50 [9]
CCCc1cc(-c2ccc(-c3cc(CCC)c(C=O)[nH]3)s2)[nH]c1C=O	44.5 µM (inactive)	86.1 µM (inactive)	53 µM (inactive)	76.4 µM (inactive)	4.53 µM (inactive)	> 100 µM (inactive)	> 100 µM (inactive)		
O=C(COc1ccccc1Cl)N1N=C(c2ccccc2)CC1(O)c1ccccc1 (stereo not given)	18.5 µM (inactive)	16.7 µM (inactive)		17.1 µM (inactive)	19 µM (inactive)	20.4 µM (inactive)	17.6 µM (inactive)	16.1 µM (inactive)	
Cc1cc(C(O)CCCc2ccccc2)cc(C)c1O (stereo not given)			> 100 µM (inactive)	47.5 µM (inactive)	37.7 µM (inactive)	34.9 µM (inactive)		> 100 µM (inactive)	51.5 µM (inactive)
O=C(Nc1nc2ncn(CCOC(=O)c3ccccc3)c2c(=S)[nH]1)c1ccccc1	> 100 µM (inactive)	50.9 µM (inactive)	> 100 µM (inactive)	49.3 µM (inactive)	50.4 µM (inactive)	44.1 µM (inactive)		> 100 µM (inactive)	
Oc1cc(O)c2c(-c3c(O)c(-c4ccc(O)c(O)c4)[o+]c4cc(O)cc(O)c34)c(O)c(-c3ccc(O)c(O)c3)[o+]c2c1	87.7 µM (inactive)	39.6 µM (inactive)	8 µM (inactive)	55.5 µM (inactive)	45.3 µM (inactive)	51.5 µM (inactive)	33.7 µM (inactive)	46 µM (inactive)	30.9 µM (inactive)
CN=[S+]([O-])(c1ccccc1)c1ccccc1	> 100 µM (inactive)	> 100 µM (inactive)	> 100 µM (inactive)		> 100 µM (inactive)	> 100 µM (inactive)	> 100 µM (inactive)	> 100 µM (inactive)	
Nc1ccc(C2=N/C(=C\c3cccc(N)c3)C(=O)O2)cc1	> 100 µM (inactive)			> 100 µM (inactive)	> 100 µM (inactive)	> 100 µM (inactive)	> 100 µM (inactive)	> 100 µM (inactive)	> 100 µM (inactive)
CN(C)CCNC(=O)c1cccc2cc3c(Cl)cccc3nc12	1.17 µM (inactive)	0.562 µM (active)	4.51 µM (inactive)	1.67 µM (inactive)	1.33 µM (inactive)	2.11 µM (inactive)	0.394 µM (active)	1.54 µM (inactive)	2.55 µM (inactive)
CCOC(=O)C1(Cc2ccc3ccccc3c2)CCCCCN1 (stereo not given)	25.9 µM (inactive)	18.9 µM (inactive)	25.5 µM (inactive)	34.1 µM (inactive)	31.1 µM (inactive)	64.3 µM (inactive)	16.2 µM (inactive)	22.5 µM (inactive)	
O=[N+]([O-])c1ccccc1S(=O)(=O)c1ccccc1[N+](=O)[O-]	> 100 µM (inactive)	> 100 µM (inactive)	> 83.2 µM (inactive)	> 100 µM (inactive)	> 100 µM (inactive)	16.4 µM (inactive)	30.7 µM (inactive)	> 100 µM (inactive)	
O=C(N/N=C1\C(=O)N(c2nccs2)C(=O)C(=O)C1c1nc2ccccc2s1)c1ccccc1O (stereo not given)	71.1 µM (inactive)	31.8 µM (inactive)	10.1 µM (inactive)	32 µM (inactive)	87.1 µM (inactive)	33.3 µM (inactive)	27.1 µM (inactive)	> 100 µM (inactive)	
NC(=S)N/N=C(\CCC(=O)Nc1ccccc1[N+](=O)[O-])CC(=O)c1ccco1	> 100 µM (inactive)	> 100 µM (inactive)	> 100 µM (inactive)	> 100 µM (inactive)	> 100 µM (inactive)	> 100 µM (inactive)	> 100 µM (inactive)	> 100 µM (inactive)	> 100 µM (inactive)
O=C(CC(=O)C1=CNc2ccccc2S1)C(=O)Nc1ccc(Cl)cc1	> 50 µM (inactive)	> 50 µM (inactive)		> 50 µM (inactive)	> 50 µM (inactive)	> 50 µM (inactive)	> 50 µM (inactive)	> 50 µM (inactive)	> 50 µM (inactive)
N#C/C(=C\c1ccc(O)cc1)C(N)=O	> 100 µM (inactive)	> 100 µM (inactive)		> 100 µM (inactive)	> 100 µM (inactive)	> 100 µM (inactive)	> 100 µM (inactive) and > 88.5 µM (inactive)	> 100 µM (inactive)	> 100 µM (inactive)
CC1=C(C)C(=O)c2c(cc3ccccn23)C1=O	> 10 µM (inactive)	16.6 µM (inactive)	33.9 µM (inactive)	15.3 µM (inactive)	1.87 µM (inactive)	23.1 µM (inactive)			3.12 µM (inactive)
c1ccc([P+](c2ccccc2)(c2ccccc2)C2Sc3ccccc3S2)cc1	12.4 µM (inactive)	18.1 µM (inactive)		12.6 µM (inactive)	15.1 µM (inactive)	18.7 µM (inactive)	17.3 µM (inactive)	23.4 µM (inactive)	16 µM (inactive)
CCOC(=O)c1cn(CC)c2cc3c(cc2c1=O)SCS3	> 100 µM (inactive)	> 100 µM (inactive)	80 µM (inactive)	> 100 µM (inactive)	> 100 µM (inactive)			> 100 µM (inactive)	> 100 µM (inactive)
O=S1(=O)NN=C(NCc2ccc(F)cc2)c2ccccc21	58.5 µM (inactive)	47.1 µM (inactive)		27.7 µM (inactive)	40.4 µM (inactive)	55.6 µM (inactive)	65 µM (inactive)	> 100 µM (inactive)	
COc1ccccc1C(O)(c1ccccc1)C(O)(c1ccccc1)c1ccccc1OC (stereo not given)	> 100 µM (inactive)	> 100 µM (inactive)	> 100 µM (inactive)	> 100 µM (inactive)	> 100 µM (inactive)	> 100 µM (inactive)	> 100 µM (inactive)	> 100 µM (inactive)	> 100 µM (inactive)
NC1=NC2=c3ccccc3=C(c3cnccn3)C2(c2cnccn2)c2ccccc21 (stereo not given)	> 100 µM (inactive)	> 100 µM (inactive)	> 100 µM (inactive)		> 100 µM (inactive)	49.1 µM (inactive)	36.7 µM (inactive)	> 100 µM (inactive)	
CCCCCCCCCCCCCCCCc1c(O)nc(NC#N)nc1C(=O)OC	> 25 µM (inactive)		> 25 µM (inactive)	> 25 µM (inactive)	> 25 µM (inactive)	> 25 µM (inactive)	> 25 µM (inactive)	> 25 µM (inactive)	> 25 µM (inactive)
CN/N=C(/Cc1occc(=O)c1O)C(=O)Nc1ccccc1C				> 100 µM (inactive)	> 100 µM (inactive)	> 100 µM (inactive)		> 100 µM (inactive)	
CCOC(=O)N1Cc2ccoc2C1	> 100 µM (inactive)	> 100 µM (inactive)	> 100 µM (inactive)	> 100 µM (inactive)	> 100 µM (inactive)			> 100 µM (inactive)	
COc1cc([C@@H]2c3cc4c(cc3[C@@H](OC(=O)c3cccc(N)c3)C3COC(=O)[C@@H]32)OCO4)cc(OC)c1O (stereo not given in full)	12.3 µM (inactive)	0.525 µM (active)		0.76 µM (active)	5.68 µM (inactive)	64.4 µM (inactive)	0.863 µM (active)	1.41 µM (inactive)	
Cc1ccc(/N=N/c2c(C)nn(-c3ccccc3)c2C)c(Br)c1	65.6 µM (inactive)	51.3 µM (inactive)	> 100 µM (inactive)	95.3 µM (inactive)	> 100 µM (inactive)	> 100 µM (inactive)	> 100 µM (inactive)	> 100 µM (inactive)	> 100 µM (inactive)
CC1CN1c1c(C(=O)/C=C/c2ccc(Cl)cc2)c(-c2ccccc2)nn(C)c1=O (stereo not given)	1.71 µM (inactive)	2.62 µM (inactive)	3.92 µM (inactive)	2.13 µM (inactive)	3.14 µM (inactive)	2.21 µM (inactive)	2.99 µM (inactive)	3.26 µM (inactive)	
